Laboratory results reported in paper PMC8000592, “Discovery and Optimization of Selective Inhibitors of Meprin α (Part I)” (Pharmaceuticals, 2021).
Like-named read-outs stand apart in the source and are kept apart here.

Columns and labels:
meprin β = molecular target: T1, meprin β (Homo sapiens, UniProt Q16820); assay: Meprin β assay, fluorogenic substrate (Mca)-EDEDED-(K-ε-Dnp), 384 and 1536 well plate formats; type: biochemical
T1 sequence (Q16820 62-594 limits assumed): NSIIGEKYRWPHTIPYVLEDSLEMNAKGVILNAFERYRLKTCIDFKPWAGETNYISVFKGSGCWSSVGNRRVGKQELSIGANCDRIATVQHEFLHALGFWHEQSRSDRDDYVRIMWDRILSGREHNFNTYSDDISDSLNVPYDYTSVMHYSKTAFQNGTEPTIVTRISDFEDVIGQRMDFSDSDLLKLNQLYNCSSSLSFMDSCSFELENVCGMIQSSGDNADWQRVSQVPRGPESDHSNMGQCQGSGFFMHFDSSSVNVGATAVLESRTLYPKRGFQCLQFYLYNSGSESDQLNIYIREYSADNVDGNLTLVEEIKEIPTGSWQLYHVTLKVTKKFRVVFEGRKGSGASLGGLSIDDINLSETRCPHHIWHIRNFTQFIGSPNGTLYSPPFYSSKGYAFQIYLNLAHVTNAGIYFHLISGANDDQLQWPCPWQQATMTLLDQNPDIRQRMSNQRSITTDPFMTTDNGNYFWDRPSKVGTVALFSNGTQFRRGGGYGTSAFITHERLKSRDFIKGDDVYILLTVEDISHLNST
Text: The meprin α and meprin β assays, which utilize the substrates (Mca)-YVADAPK-(K-ε-Dnp) and (Mca)-EDEDED-(K-ε-Dnp), respectively, have been described previously. To enable an ultra-high-throughput screening (uHTS) campaign, we proceeded to miniaturize both assays to 1536 well plate format (wpf). First, we recapitulated the assays in 1536 well plate using reagents at the same concentrations as in 384 well plate format assays by scaling the volume down by the factor of 2.5.
Both assays followed the same general protocol. A 5 µL measure of 2 × enzyme solution (2.6 and 0.1 nM for meprin α and meprin β, respectively) in assay buffer (50 mM Hepes, 0.01% Brij-35, pH 7.5) was added to solid bottom black 384 low volume plates (Nunc, cat# 264705). Next, 75 nL of test compounds or pharmacological control (actinonin or NFF449) were added to corresponding wells using a 384-pin tool device (V&P Scientific, San Diego, CA, USA). After 30 min incubation at RT, the reactions were started by addition of 5 µL of 2 × solutions of substrates (20 µM, mepin α substrate Mca-YVADAPK-K(Dnp) or meprin β substrate Mca-EDEDED-K(Dnp)). Reactions were incubated at RT for 1 h, after which the fluorescence was measured using the Synergy H4 multimode microplate reader (Biotek Instruments) (λexcitation = 324 nm, λemission = 390 nm).
Both assays followed the same general protocol. A 2 µL portion of 2 × enzyme solution (1.3 and 0.0125 nM for meprin α and meprin β, respectively) in assay buffer (50 mM Hepes, 0.01% Brij-35, pH 7.5) was added to solid bottom black 1536 low volume plates (Corning cat# 7261). Next, 30 nL of test compounds or pharmacological control (actinonin or NFF449) was added to corresponding wells using a 1536 pin tool device (V&P Scientific, San Diego). After 30 min incubation at RT, the reactions were started by addition of 2 µL of 2x solutions of substrates (20 µM, meprin α substrate Mca-YVADAPK-K(Dnp) or meprin β substrate Mca-EDEDED-K(Dnp)). Reactions were incubated at RT for 1 h, after which the fluorescence was measured using the Viewlux multimode microplate reader (Perkin Elmer) (λexcitation = 324 nm, λemission = 390 nm).
The miniaturized 1536-well plate format meprin α and meprin β assays were used to screen a collection of approximately 650,000 compounds (The Scripps Research library, La Jolla, CA, USA) on the automated Kalypsys/GNF platform at The Scripps Research Molecular Screening Center (SRMSC, Jupiter, FL, USA: http://hts.florida.scripps.edu/). Both uHTS campaigns were run separately but in a similar manner. Briefly, the first step was the primary screen of all test compounds as singlicates against the meprin α and meprin β target at a final concentration of 7.0 μM. Next, compounds selected as primary hits were cherry-picked and retested in triplicate against the primary screen target and its antitarget (meprin α for the meprin β screening effort, and vice versa) at a same final concentration of 7.0 μM. The additional counter screen assays against related metzincins (MMP-8, MMP-14, and ADAM10) were performed in triplicate at a final concentration of 7.0 μM. The final step was the titration of selected hits as 10-point, 1:3 serial dilutions in both the target and antitarget assay, starting at a final nominal concentration of 17 μM. […] Wells treated with DMSO only were used as negative controls and 0% inhibition reference. […] All data generated during this effort were uploaded to the SRMSC’s institutional screening database (Assay Explorer, Symyx). Sample to background (S/B) ratios, as well as Z and Z’ values, were calculated on a per plate basis as described 14. Curve fitting and resulting IC50 determinations were performed as previously reported.

ADAM17 = molecular target: T2, ADAM17 (Homo sapiens, UniProt P78536); assay: ADAM17 assay (Mca-KPLGL-Dpa-AR-NH2 substrate); type: biochemical; details: triplicate, 10-point, 3:1 serial dilution, highest concentration 17.4 µM
T2 construct: purchased R&D Systems 930-ADB
Experimental: We were able to procure 64 out of 87 selected compounds from commercial sources, which we tested in triplicate, 10-point, 3:1 serial dilution concentration response format starting at the highest concentration of 17.4 µM against both meprin α and meprin β. In addition to meprins, we also tested 64 hits against related metzincins (MMP-2, MMP-3, MMP-8, MMP-9, MMP-10, MMP-14, ADAM10, and ADAM17) to ascertain general nonpromiscuity against zinc-dependent proteases.
Both assays followed the same general protocol. A 2.5 µL portion of 2 × enzyme solution (20 nM) in assay buffer (10 mM HEPES, 0.001% Brij-35, pH 7.5) was added to solid bottom black 1536 plates (Greiner, cat# 789075). Next, test compounds and pharmacological controls were added to corresponding wells using a 1536 pin tool device (V&P Scientific, San Diego, CA, USA). After 30 min incubation at RT, the reactions were started by addition of 2.5 µL of 2x solutions of substrate (R&D Systems cat#: ES010, Mca-KPLGL-Dpa-AR-NH2, 20 µM). Reactions were incubated at RT for 2 h, after which the fluorescence was measured using a PerkinElmer Viewlux multimode microplate imager (λexcitation = 324 nm, λemission = 390 nm). Final concentration of test compounds in assays was 7.0 µM.

[1] = triplicate, 10-point, 3:1 serial dilution, highest concentration 17.4 µM, read-out: Meprin β IC50

T2 sequence (P78536 215-824): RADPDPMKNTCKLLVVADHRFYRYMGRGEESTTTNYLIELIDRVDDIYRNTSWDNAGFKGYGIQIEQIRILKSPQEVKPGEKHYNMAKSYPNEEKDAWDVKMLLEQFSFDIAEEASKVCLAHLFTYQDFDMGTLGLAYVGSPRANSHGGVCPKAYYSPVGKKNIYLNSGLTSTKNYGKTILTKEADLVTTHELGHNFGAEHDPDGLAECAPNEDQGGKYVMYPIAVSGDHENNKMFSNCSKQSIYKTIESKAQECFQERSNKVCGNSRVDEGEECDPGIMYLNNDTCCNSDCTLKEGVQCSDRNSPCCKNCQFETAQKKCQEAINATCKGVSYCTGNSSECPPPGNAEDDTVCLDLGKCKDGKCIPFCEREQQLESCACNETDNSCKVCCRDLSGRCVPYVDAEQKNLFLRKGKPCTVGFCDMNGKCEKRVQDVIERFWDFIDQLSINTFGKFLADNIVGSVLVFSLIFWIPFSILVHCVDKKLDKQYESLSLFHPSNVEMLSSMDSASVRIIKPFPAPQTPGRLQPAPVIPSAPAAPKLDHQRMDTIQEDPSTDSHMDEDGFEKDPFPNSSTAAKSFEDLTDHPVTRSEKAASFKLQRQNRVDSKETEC

O=C(CSc1nnc(NC(=O)c2ccccc2)s1)NO [Compound 19847] was tested, and the IC50 (meprin β; [1]) was 1430 nM and the IC50 (ADAM17) was > 17000 nM.
For O=C(CSc1nnc(NC(=O)COc2ccccc2)s1)NO [Compound 19848], the IC50 (meprin β; [1]) was 385 nM and the IC50 (ADAM17) was > 17000 nM.
With COc1cc(OC)cc(C(=O)CNc2nnc(SCC(=O)NO)s2)c1 [Compound 19849] the IC50 (meprin β; [1]) was 287 nM and the IC50 (ADAM17) was 8010 nM.
COc1ccc(-n2c(CSc3ncccn3)nnc2SCC(=O)NO)cc1 [Compound 19855] was tested, and the IC50 (meprin β; [1]) was > 17000 nM and the IC50 (ADAM17) was > 17000 nM.
In the case of O=C(CCN(Cc1cccs1)S(=O)(=O)c1ccc([N+](=O)[O-])cc1)NO [Compound 162799], the IC50 (meprin β; [1]) is reported as > 17000 nM and the IC50 (ADAM17) is reported as > 17000 nM.
O=C(CCN(Cc1ccccc1)S(=O)(=O)c1ccc(F)cc1)NO [Compound 162808] was tested, and the IC50 (meprin β; [1]) was > 17000 nM and the IC50 (ADAM17) was > 17000 nM.
In the case of O=C(COc1ccc(Cl)cc1Cl)NO [Compound 1596857], the IC50 (meprin β) is reported as > 17000 nM and the IC50 (ADAM17) is reported as > 17000 nM.
Compound O=C(Nc1cc(C(=O)Nc2ccc(S(=O)(=O)O)cc2S(=O)(=O)O)cc(C(=O)Nc2ccc(S(=O)(=O)O)cc2S(=O)(=O)O)c1)Nc1cc(C(=O)Nc2ccc(S(=O)(=O)O)cc2S(=O)(=O)O)cc(C(=O)Nc2ccc(S(=O)(=O)O)cc2S(=O)(=O)O)c1 [NFF449] has an increased apparent potency (meprin β; 2.5 µM substrate condition) of 3 fold, an IC50 (meprin β; 1536 wpf, 0.0125 nM enzyme, substrate 2.5uM, time 30 min, read-out: NF449 IC50) of 10 nM and an IC50 (meprin β; 1536 wpf, 0.0125 nM enzyme, substrate 2.5uM, time 60 min, read-out: NF449 IC50) of 11 nM. For the same compound, the IC50 (meprin β; 1536 wpf, 0.0125 nM enzyme, substrate 5uM, time 30 min, read-out: NF449 IC50) was 17 nM, the IC50 (meprin β; 1536 wpf, 0.0125 nM enzyme, substrate 5uM, time 60 min, read-out: NF449 IC50) was 20 nM and the IC50 (meprin β; 1536 wpf, 0.0125 nM enzyme, substrate 5uM, time 90 min, read-out: NF449 IC50) was 22 nM. It also gave an IC50 (meprin β; 1536 wpf, 0.0125 nM enzyme, substrate 10uM, time 30 min, read-out: NF449 IC50) of 34 nM, an IC50 (meprin β; 1536 wpf, 0.0125 nM enzyme, substrate 10uM, time 60 min, read-out: NF449 IC50) of 32 nM and an IC50 (meprin β; 1536 wpf, 0.0125 nM enzyme, substrate 10uM, time 90 min, read-out: NF449 IC50) of 34 nM. It also gave an IC50 (meprin β; 1536 wpf, enzyme 0.0125nM, time 30 min, read-out: NF449 IC50) of 25.2 nM, an IC50 (meprin β; 1536 wpf, enzyme 0.0125nM, time 60 min, read-out: NF449 IC50) of 30.4 nM and an IC50 (meprin β; 1536 wpf, enzyme 0.0125nM, time 90 min, read-out: NF449 IC50) of 33.9 nM. It also gave an IC50 (meprin β; 1536 wpf, enzyme 0.025nM, time 30 min, read-out: NF449 IC50) of 31 nM, an IC50 (meprin β; 1536 wpf, enzyme 0.025nM, time 60 min, read-out: NF449 IC50) of 36.2 nM and an IC50 (meprin β; 1536 wpf, enzyme 0.025nM, time 90 min, read-out: NF449 IC50) of 39.2 nM. It also gave an IC50 (meprin β; 1536 wpf, enzyme 0.05nM, time 30 min, read-out: NF449 IC50) of 29.6 nM, an IC50 (meprin β; 1536 wpf, enzyme 0.05nM, time 60 min, read-out: NF449 IC50) of 34.6 nM and an IC50 (meprin β; 1536 wpf, enzyme 0.05nM, time 90 min, read-out: NF449 IC50) of 39.4 nM. For the same compound, the IC50 (meprin β; Meprin β 384 wpf, read-out: IC50) was 53 nM, the IC50 (meprin β; Meprin β 1536 wpf, read-out: IC50) was 48 nM and the IC50 (meprin β; control compound in primary HTS campaign, n = 11 plates, read-out: IC50) was 10.4 ± 0.85 nM.
For O=[N+]([O-])c1ccc(CN2CCC3(CCc4ccccc43)CC2)o1 [SR207820], the IC50 (meprin β; [1]) was 1500 nM and the IC50 (ADAM17) was > 17000 nM.
For O=C(c1ccc(C(=O)O)c([N+](=O)[O-])c1)c1ccc(C(=O)O)c([N+](=O)[O-])c1 [SR355996], the IC50 (meprin β; [1]) was 970 nM and the IC50 (ADAM17) was > 17000 nM.
CSc1nnc2c(n1)OC(c1ccc([N+](=O)[O-])o1)Nc1ccccc1-2 (centres unmarked) [SR412882] was tested, and the IC50 (meprin β; [1]) was 3500 nM and the IC50 (ADAM17) was 17000 nM.
